This assay concerns the target recombinant full length HPK-1 enzyme (Homo sapiens (Human), UniProt Q92918). The assay is described as follows: HPK-1 biochemical enzyme assay (ADP-Glo kinase inhibition). Particulars: recombinant full length HPK-1 6.8 nM, 10 μM ATP, 12.5 μM MBP, 30 mins at 25° C. On the procedure: HPK-1 biochemical enzyme assay
Compound inhibitory potency was measured in an HPK-1 kinase inhibition assay. Briefly, recombinant full length HPK-1 enzyme (6.8 nM) was incubated with 10 μM ATP and 12.5 μM swine myelin basic protein (MBP) for 30 mins. at 25° C. in the presence of various concentrations of test compound or vehicle in 40 mM Tris.Cl pH7.4 buffer containing 20 mM MgCl2, 50 μM DTT and 0.1 mg/mL BSA. Reactions were quenched and reaction mixtures were then analyzed by an ADP-Glo kit which measures the formed ADP. The percent inhibition was calculated from the substrate conversion considering no enzyme control reactions for 100% inhibition and vehicle only reactions for 0% inhibition. The compounds were dissolved in DMSO and evaluated at 10 concentrations to determine an IC50 value.
In the below table A denotes an HPK-1 IC50≤10 nM, B denotes an HPK-1 IC50>10 nM but≤100 nM and C denotes an HPK-1 IC50>100 nM but≤1000 nM.
A general note: ADP-Glo first removes unused ATP, then detects ADP through luciferase.

Sequence of recombinant full length HPK-1 enzyme (Q92918 whole entry, species assumed): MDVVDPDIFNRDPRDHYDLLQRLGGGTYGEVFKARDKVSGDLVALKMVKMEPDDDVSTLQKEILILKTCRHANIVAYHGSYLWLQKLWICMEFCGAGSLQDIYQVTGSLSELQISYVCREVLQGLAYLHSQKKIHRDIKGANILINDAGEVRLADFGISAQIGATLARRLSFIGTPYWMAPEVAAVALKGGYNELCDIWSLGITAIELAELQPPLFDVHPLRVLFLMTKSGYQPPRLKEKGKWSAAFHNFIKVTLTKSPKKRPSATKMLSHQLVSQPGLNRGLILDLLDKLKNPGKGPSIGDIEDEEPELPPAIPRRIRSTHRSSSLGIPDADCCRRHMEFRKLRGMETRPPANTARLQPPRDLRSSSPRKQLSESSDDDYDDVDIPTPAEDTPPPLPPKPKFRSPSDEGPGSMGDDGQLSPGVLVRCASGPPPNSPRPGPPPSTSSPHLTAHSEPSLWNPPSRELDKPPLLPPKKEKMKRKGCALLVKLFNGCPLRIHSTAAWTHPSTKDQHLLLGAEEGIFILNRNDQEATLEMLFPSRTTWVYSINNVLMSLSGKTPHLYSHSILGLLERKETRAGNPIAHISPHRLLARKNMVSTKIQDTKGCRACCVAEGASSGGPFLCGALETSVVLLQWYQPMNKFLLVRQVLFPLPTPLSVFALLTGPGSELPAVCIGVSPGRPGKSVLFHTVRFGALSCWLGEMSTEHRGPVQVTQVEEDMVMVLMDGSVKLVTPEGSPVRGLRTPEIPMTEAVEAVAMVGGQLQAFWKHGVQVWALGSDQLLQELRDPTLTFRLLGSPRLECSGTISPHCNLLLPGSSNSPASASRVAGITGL

Broadly, the IC50 is the concentration at which inhibition is half-maximal. With `COC(C)(C)CN1CCN(c2ccc(NC(=O)c3c(Nc4cnc5c(c4C)NCCO5)cc[nH]c3=O)cc2)CC1` [Example 310, N-(4-(4-(2-methoxy-2-methylpropyl)piperazin-1-yl)phenyl)-4-((8-methyl-2,3-dihydro-1H-pyrido[2,3-b][1,4]oxazin-7-yl)amino)-2-oxo-1,2-dihydropyridine-3-carboxamide], the IC50 was ≤ 0.01 µM.

For the compound `Cc1c(Nc2cc[nH]c(=O)c2C(=O)Nc2ccc(N3CCN(C4CC4)CC3)c(Cl)c2)cnc2c1NCCO2` [Example 391, N-(3-chloro-4-(4-cyclopropylpiperazin-1-yl)phenyl)-4-((8-methyl-2,3-dihydro-1H-pyrido[2,3-b][1,4]oxazin-7-yl)amino)-2-oxo-1,2-dihydropyridine-3-carboxamide], the IC50 was ≤ 0.01 µM.

In the case of `Cc1c(Nc2cc[nH]c(=O)c2C(=O)Nc2ccc(N3CCN(C)CC3)c(F)c2)cnc2c1NCCO2` [Example 96, N-(3-fluoro-4-(4-methylpiperazin-1-yl)phenyl)-4-((8-methyl-2,3-dihydro-1H-pyrido[2,3-b][1,4]oxazin-7-yl)amino)-2-oxo-1,2-dihydropyridine-3-carboxamide], the IC50 was ≤ 0.01 µM.

In the case of `Cc1cc(N2CCN(C)CC2)ccc1NC(=O)c1c(Nc2cnc3c(c2C)NCCO3)cc[nH]c1=O` [Example 195, 4-((8-methyl-2,3-dihydro-1H-pyrido[2,3-b][1,4]oxazin-7-yl)amino)-N-(2-methyl-4-(4-methylpiperazin-1-yl)phenyl)-2-oxo-1,2-dihydropyridine-3-carboxamide], the IC50 was in the range of 0.1 to 1 µM.

For the compound `Cc1c(Nc2cc[nH]c(=O)c2C(=O)Nc2ccc(N3CCN(CC(=O)N(C)C)CC3)cc2)cnc2c1NCCO2` [Example 298, N-(4-(4-(2-(dimethylamino)-2-oxoethyl)piperazin-1-yl)phenyl)-4-((8-methyl-2,3-dihydro-1H-pyrido[2,3-b][1,4]oxazin-7-yl)amino)-2-oxo-1,2-dihydropyridine-3-carboxamide], the IC50 was ≤ 0.01 µM.

With `Cc1c(Nc2cc[nH]c(=O)c2C(=O)Nc2ccc(N3CCN(C(=O)C(C)C)CC3)cc2)cnc2c1NCCO2` [Example 315, N-(4-(4-Isobutyrylpiperazin-1-yl)phenyl)-4-((8-methyl-2,3-dihydro-1H-pyrido[2,3-b][1,4]oxazin-7-yl)amino)-2-oxo-1,2-dihydropyridine-3-carboxamide], the IC50 was ≤ 0.01 µM.

As for `Cc1c(Nc2cc[nH]c(=O)c2C(=O)Nc2ccc(N3CCN(c4ccn(C)n4)CC3)cc2)cnc2c1NCCO2` [Example 336, N-(4-(4-(1-methyl-1H-pyrazol-3-yl)piperazin-1-yl)phenyl)-4-((8-methyl-2,3-dihydro-1H-pyrido[2,3-b][1,4]oxazin-7-yl)amino)-2-oxo-1,2-dihydropyridine-3-carboxamide], the IC50 is ≤ 0.01 µM.

Turning to `Cc1c(Nc2cc[nH]c(=O)c2C(=O)Nc2ccc(N3CCN(c4cscn4)CC3)cc2)cnc2c1NCCO2` [Example 367, 4-((8-methyl-2,3-dihydro-1H-pyrido[2,3-b][1,4]oxazin-7-yl)amino)-2-oxo-N-(4-(4-(thiazol-4-yl)piperazin-1-yl)phenyl)-1,2-dihydropyridine-3-carboxamide], the IC50 is 0.01 to 0.1 µM.

For `Cc1c(Nc2cc[nH]c(=O)c2C(=O)Nc2ccc(N3CCN4CCCC4C3)cc2)cnc2c1NCC(C)O2` (stereo not drawn) [Example 201, 4-((3,8-dimethyl-2,3-dihydro-1H-pyrido[2,3-b][1,4]oxazin-7-yl)amino)-N-(4-(hexahydropyrrolo[1,2-a]pyrazin-2(1H)-yl)phenyl)-2-oxo-1,2-dihydropyridine-3-carboxamide], the IC50 was in the range of 0.01 to 0.1 µM.

As to `Cc1c(Nc2cc[nH]c(=O)c2C(=O)Nc2ccc(N3CCN4CCC[C@H]4C3)cc2)cnc2c1NCCO2` [Example 328, (S)-N-(4-(hexahydropyrrolo[1,2-a]pyrazin-2(1H)-yl)phenyl)-4-((8-methyl-2,3-dihydro-1H-pyrido[2,3-b][1,4]oxazin-7-yl)amino)-2-oxo-1,2-dihydropyridine-3-carboxamide], the IC50 is ≤ 0.01 µM.

As for `Cc1c(Nc2cc[nH]c(=O)c2C(=O)Nc2ccc3c(c2)NCCO3)cnc2c1NCCO2` [Example 240, N-(3,4-dihydro-2H-benzo[b][1,4]oxazin-6-yl)-4-((8-methyl-2,3-dihydro-1H-pyrido[2,3-b][1,4]oxazin-7-yl)amino)-2-oxo-1,2-dihydropyridine-3-carboxamide], the IC50 was 0.01 to 0.1 µM.

Regarding `Cc1c(Nc2cc[nH]c(=O)c2C(=O)Nc2ccc(N3CCN(C(C)C)CC3)c(F)c2)cnc2c1NCC(C)O2` (stereo not drawn) [Example 183, 4-((3,8-dimethyl-2,3-dihydro-1H-pyrido[2,3-b][1,4]oxazin-7-yl)amino)-N-(3-fluoro-4-(4-isopropylpiperazin-1-yl)phenyl)-2-oxo-1,2-dihydropyridine-3-carboxamide], the concentration for half-maximal inhibition (IC50) was ≤ 0.01 µM.

Consider `Cc1c(Nc2cc[nH]c(=O)c2C(=O)Nc2ccc(-c3cnco3)cc2)cnc2c1NCCO2` [Example 146, 4-((8-methyl-2,3-dihydro-1H-pyrido[2,3-b][1,4]oxazin-7-yl)amino)-N-(4-(oxazol-5-yl)phenyl)-2-oxo-1,2-dihydropyridine-3-carboxamide], for which the IC50 was 0.01 to 0.1 µM.

Regarding `Cc1c(Nc2cc[nH]c(=O)c2C(=O)Nc2ccc(N3CCN(CCC4CNC4)CC3)cc2)cnc2c1NCCO2` [Example 238, N-(4-(4-(2-(azetidin-3-yl)ethyl)piperazin-1-yl)phenyl)-4-((8-methyl-2,3-dihydro-1H-pyrido[2,3-b][1,4]oxazin-7-yl)amino)-2-oxo-1,2-dihydropyridine-3-carboxamide], the IC50 is ≤ 0.01 µM.

As to `Cc1c(Nc2cc[nH]c(=O)c2C(=O)Nc2ccc(S(=O)(=O)NC3CC3)cc2)cnc2c1NCCO2` [Example 231, N-(4-(N-cyclopropylsulfamoyl)phenyl)-4-((8-methyl-2,3-dihydro-1H-pyrido[2,3-b][1,4]oxazin-7-yl)amino)-2-oxo-1,2-dihydropyridine-3-carboxamide], the half-inhibitory concentration (IC50) fell in the range of 0.01 to 0.1 µM.

As for `Cc1c(Nc2cc[nH]c(=O)c2C(=O)Nc2ccc(N3CCN(C(=O)C4CC4)CC3)cc2)cnc2c1NCCO2` [Example 332, N-(4-(4-(cyclopropanecarbonyl)piperazin-1-yl)phenyl)-4-((8-methyl-2,3-dihydro-1H-pyrido[2,3-b][1,4]oxazin-7-yl)amino)-2-oxo-1,2-dihydropyridine-3-carboxamide], the IC50 is ≤ 0.01 µM.

`Cc1c(Nc2cc[nH]c(=O)c2C(=O)Nc2ccc(N3CCN(CCN4CCOCC4)CC3)cc2)cnc2c1NCCO2` [Example 226, 4-((8-methyl-2,3-dihydro-1H-pyrido[2,3-b][1,4]oxazin-7-yl)amino)-N-(4-(4-(2-morpholinoethyl)piperazin-1-yl)phenyl)-2-oxo-1,2-dihydropyridine-3-carboxamide]: the IC50 was ≤ 0.01 µM.

In the case of `Cc1c(Nc2cc[nH]c(=O)c2C(=O)Nc2ccc(N3CCN(CCF)CC3)c(F)c2)cnc2c1NCCO2` [Example 387, N-(3-fluoro-4-(4-(2-fluoroethyl)piperazin-1-yl)phenyl)-4-((8-methyl-2,3-dihydro-1H-pyrido[2,3-b][1,4]oxazin-7-yl)amino)-2-oxo-1,2-dihydropyridine-3-carboxamide], the concentration for half-maximal inhibition (IC50) was 0.01 to 0.1 µM.

With `Cc1c(Nc2cc[nH]c(=O)c2C(=O)Nc2ccc(Cc3ccncc3)cc2)cnc2c1NCCO2` [Example 233, 4-((8-methyl-2,3-dihydro-1H-pyrido[2,3-b][1,4]oxazin-7-yl)amino)-2-oxo-N-(4-(pyridin-4-ylmethyl)phenyl)-1,2-dihydropyridine-3-carboxamide], the IC50 lay within 0.01 to 0.1 µM.

Consider `CCn1nc(C(F)(F)F)cc1-c1ccc(NC(=O)c2c(Nc3cnc4c(c3C)NCCO4)cc[nH]c2=O)cc1` [Example 265, N-(4-(1-ethyl-3-(trifluoromethyl)-1H-pyrazol-5-yl)phenyl)-4-((8-methyl-2,3-dihydro-1H-pyrido[2,3-b][1,4]oxazin-7-yl)amino)-2-oxo-1,2-dihydropyridine-3-carboxamide], for which the IC50 was in the range of 0.01 to 0.1 µM.

On to `Cc1c(Nc2cc[nH]c(=O)c2C(=O)Nc2ccc(N3CCC(C(=O)O)CC3)cc2)cnc2c1NCCO2` [Example 216, 1-(4-(4-((8-methyl-2,3-dihydro-1H-pyrido[2,3-b][1,4]oxazin-7-yl)amino)-2-oxo-1,2-dihydropyridine-3-carboxamido)phenyl)piperidine-4-carboxylic acid], for which the IC50 fell in the range of 0.01 to 0.1 µM.

`Cc1c(Nc2cc[nH]c(=O)c2C(=O)Nc2ccc(N3CCN(C)CC3)cc2F)cnc2c1NCCO2` [Example 207, N-(2-fluoro-4-(4-methylpiperazin-1-yl)phenyl)-4-((8-methyl-2,3-dihydro-1H-pyrido[2,3-b][1,4]oxazin-7-yl)amino)-2-oxo-1,2-dihydropyridine-3-carboxamide]: the IC50 is 0.01 to 0.1 µM.

As to `CN1CCN(c2ccc(NC(=O)c3c(Nc4cnc5c(c4C#N)NCCO5)cc[nH]c3=O)cc2)CC1` [Example 299, 4-((8-cyano-2,3-dihydro-1H-pyrido[2,3-b][1,4]oxazin-7-yl)amino)-N-(4-(4-methylpiperazin-1-yl)phenyl)-2-oxo-1,2-dihydropyridine-3-carboxamide], the IC50 fell in the range of 0.01 to 0.1 µM.

`Cc1c(Nc2cc[nH]c(=O)c2C(=O)Nc2ccc(N3CCN(C4CCCC4)CC3)cc2)cnc2c1NCC(C)O2` (stereo not drawn) [Example 187, N-(4-(4-cyclopentylpiperazin-1-yl)phenyl)-4-((3,8-dimethyl-2,3-dihydro-1H-pyrido[2,3-b][1,4]oxazin-7-yl)amino)-2-oxo-1,2-dihydropyridine-3-carboxamide]: the IC50 was ≤ 0.01 µM.
